From PMC1310925, “Organotins Disrupt the 11β-Hydroxysteroid Dehydrogenase Type 2–Dependent Local Inactivation of Glucocorticoids” (Environmental Health Perspectives, 2005)

Legend:
[1] = molecular target: T1, 11β-HSD2 (Homo sapiens, UniProt P80365); assay: 11β-HSD2 activity in lysates of stably transfected HEK-293 cells (cortisol to cortisone); type: biochemical; parameters: expressed in transfected cells; host or cells: HEK-293, stably transfected; conditions: for Vmax of 11β-HSD2 in presence of inhibitor: control 2.14 ± 0.32
T1 sequence (P80365 1-405): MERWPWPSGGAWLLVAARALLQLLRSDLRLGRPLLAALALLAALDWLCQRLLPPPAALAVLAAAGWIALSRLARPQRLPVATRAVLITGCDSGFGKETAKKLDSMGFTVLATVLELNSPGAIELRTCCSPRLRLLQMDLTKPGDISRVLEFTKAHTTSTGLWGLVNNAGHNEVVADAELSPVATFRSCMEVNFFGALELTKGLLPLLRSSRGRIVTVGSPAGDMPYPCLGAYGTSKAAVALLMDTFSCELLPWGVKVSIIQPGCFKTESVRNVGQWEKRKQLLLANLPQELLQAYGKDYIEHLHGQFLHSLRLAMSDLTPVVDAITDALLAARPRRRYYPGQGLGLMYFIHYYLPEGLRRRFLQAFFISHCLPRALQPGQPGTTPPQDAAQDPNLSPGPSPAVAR
Procedure: Cells were rinsed 3 times with phosphate-buffered saline (PBS) and resuspended in 2 mL ice-cold buffer TS2 (100 mM NaCl, 1 mM EGTA, 1 mM EDTA, 1 mM MgCl2, 250 mM sucrose, 20 mM Tris-HCl, pH 7.4). Aliquots of the cell suspension were frozen at −20°C, retaining full enzymatic activity for at least 3 months. For determinationof 11β-HSD2 activity, aliquots were thawed, sonicated, and diluted 1:12 in buffer TS2 (4°C). We carried out reactions in a final volume of 20 μL containing 10 nCi [1,2,6,7-^3H]-cortisol, 400-μM NAD^+, and different concentrations of unlabeled cortisol. […] Incubations were for 10 min at 37°C.

[2] = molecular target: T1, 11β-HSD2; assay: 11β-HSD2 activity in intact stably transfected HEK-293 cells; type: cell-based; parameters: expressed in transfected cells; host or cells: HEK-293, stably transfected; conditions: for IC50: HEK-293 stably transfected, 40 nM cortisol, 2 hr; for 11β-HSD2 activity in intact cells, compound alone: concentrations 50% below their IC50 value
[3] = molecular target: T2, 17β-HSD1 (Homo sapiens, UniProt P14061); assay: 17β-HSD1 activity in cell lysates (estrone to estradiol); type: biochemical; conditions: for inhibition of 17β-HSD1: lysate; for IC50: lysates of transfected HEK-293 cells, 200 nM estrone, NADPH, read-out: IC50 17β-HSD1, cell lysate
T2 construct: expressed in transfected cells; host or cells: HEK-293, calcium-phosphate transfection, lysate
T2 sequence (P14061 1-328): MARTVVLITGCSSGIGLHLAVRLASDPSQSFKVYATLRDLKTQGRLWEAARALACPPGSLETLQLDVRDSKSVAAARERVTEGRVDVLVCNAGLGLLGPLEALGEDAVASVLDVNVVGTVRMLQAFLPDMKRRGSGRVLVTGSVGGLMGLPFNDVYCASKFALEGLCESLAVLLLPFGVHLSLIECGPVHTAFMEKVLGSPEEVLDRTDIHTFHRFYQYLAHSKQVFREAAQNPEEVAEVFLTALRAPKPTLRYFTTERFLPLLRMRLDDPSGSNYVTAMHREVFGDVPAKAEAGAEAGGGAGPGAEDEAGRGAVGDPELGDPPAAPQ
Procedure: (§1) For determination of 11β-HSD1, 17β-HSD1, and 17β-HSD2 activity, HEK-293 cells transfected by the calcium-phosphate precipitation method were harvested 48 hr later, washed with PBS, and centrifuged for 3 min at 150 × g. Supernatants were removed, cell pellets quick-frozen in a dry ice ethanol bath, and stored at −70°C. For assaying 11β-HSD1, we dissolved pellets in TS2 buffer; for 17β-HSD1 or 17β-HSD2, we used a buffer containing 50 mM potassium phosphate, 20% glycerol, and 1 mM EDTA. We measured 11β-HSD1 oxoreductase activity as described recently ([Atanasov et al. 2004]), using radiolabeled cortisone as substrate. 17β-HSD1 and 17β-HSD2 activities were measured in the presence of radiolabeled estrone or estradiol and unlabeled steroid at final concentrations of 200 nM and 500 μM NADPH or NAD^+, respectively.

[4] = molecular target: T3, 17β-HSD2 (Homo sapiens, UniProt P37059); assay: 17β-HSD2 activity in cell lysates (estradiol to estrone); type: biochemical; conditions: for IC50: lysates of transfected HEK-293 cells, 200 nM estradiol, NAD+, read-out: IC50 17β-HSD2, cell lysate
T3 construct: expressed in transfected cells; host or cells: HEK-293, calcium-phosphate transfection, lysate
T3 sequence (P37059 1-387): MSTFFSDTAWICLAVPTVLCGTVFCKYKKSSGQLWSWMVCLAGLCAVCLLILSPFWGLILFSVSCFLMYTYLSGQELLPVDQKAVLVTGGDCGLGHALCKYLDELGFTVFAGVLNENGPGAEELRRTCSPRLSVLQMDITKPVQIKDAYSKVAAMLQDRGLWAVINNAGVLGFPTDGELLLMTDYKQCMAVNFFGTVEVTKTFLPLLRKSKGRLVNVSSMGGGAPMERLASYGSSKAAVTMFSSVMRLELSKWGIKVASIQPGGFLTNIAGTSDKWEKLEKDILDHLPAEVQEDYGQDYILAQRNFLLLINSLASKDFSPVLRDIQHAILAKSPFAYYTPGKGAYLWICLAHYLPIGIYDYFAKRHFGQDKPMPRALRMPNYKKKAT
Procedure: as §1

[5] = molecular target: T4, 11β-HSD1 (Homo sapiens, UniProt P28845); assay: 11β-HSD1 oxoreductase activity in cell lysates (cortisone to cortisol); type: biochemical; conditions: for inhibition of 11β-HSD1-dependent conversion of cortisone to cortisol: concentrations up to 200 μM, lysate; for IC50: lysates of transfected HEK-293 cells, cortisone as substrate, read-out: IC50 11β-HSD1, cell lysate
T4 construct: expressed in transfected cells; host or cells: HEK-293, calcium-phosphate transfection, lysate
T4 sequence (P28845 whole entry): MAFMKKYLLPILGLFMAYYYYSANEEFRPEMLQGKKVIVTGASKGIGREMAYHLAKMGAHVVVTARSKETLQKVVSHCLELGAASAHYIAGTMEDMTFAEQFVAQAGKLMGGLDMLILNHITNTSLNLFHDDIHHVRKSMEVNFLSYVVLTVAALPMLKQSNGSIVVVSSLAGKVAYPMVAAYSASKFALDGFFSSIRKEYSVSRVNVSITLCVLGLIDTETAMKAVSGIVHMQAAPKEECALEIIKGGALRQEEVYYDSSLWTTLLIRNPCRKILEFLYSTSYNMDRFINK
Procedure: as §1

[6] = molecular target: 11β-HSD2 Cys^127Ser (Homo sapiens, UniProt P80365, C127S); conditions: read-out: TBT IC50 ± SD, Cys^127Ser; mutant Cys^127Ser, lysate
11β-HSD2 Cys^127Ser, sequence (P80365 whole entry C127S): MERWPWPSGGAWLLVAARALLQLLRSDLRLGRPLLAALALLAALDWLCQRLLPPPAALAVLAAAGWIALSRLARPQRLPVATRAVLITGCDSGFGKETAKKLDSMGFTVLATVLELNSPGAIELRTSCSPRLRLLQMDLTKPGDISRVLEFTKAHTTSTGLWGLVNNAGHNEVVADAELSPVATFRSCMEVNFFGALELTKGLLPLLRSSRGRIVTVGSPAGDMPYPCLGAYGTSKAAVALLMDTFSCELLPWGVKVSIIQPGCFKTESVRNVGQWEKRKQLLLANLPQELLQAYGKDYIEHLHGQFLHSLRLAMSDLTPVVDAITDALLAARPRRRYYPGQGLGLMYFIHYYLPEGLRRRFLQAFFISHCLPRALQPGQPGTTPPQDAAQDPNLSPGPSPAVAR
Procedure: (§2) Cells were rinsed 3 times with phosphate-buffered saline (PBS) and resuspended in 2 mL ice-cold buffer TS2 (100 mM NaCl, 1 mM EGTA, 1 mM EDTA, 1 mM MgCl2, 250 mM sucrose, 20 mM Tris-HCl, pH 7.4). […] For determinationof 11β-HSD2 activity, aliquots were thawed, sonicated, and diluted 1:12 in buffer TS2 (4°C). We carried out reactions in a final volume of 20 μL containing 10 nCi [1,2,6,7-^3H]-cortisol, 400-μM NAD^+, and different concentrations of unlabeled cortisol. […] Incubations were for 10 min at 37°C.
(§3) All constructs were verified by sequencing and recloned into pcDNA3 expression vector. Wild-type and mutant enzymes were expressed in HEK-293 cells, lysates were prepared, and proteins were separated by sodium dodecyl sulfate (SDS) gel electrophoresis. Proteins were transferred to nitrocellulose, and expression levels of 11β-HSD2 constructs were detected using mouse monoclonal antibody M2 raised against the FLAG epitope and visualized with a horseradish peroxidase conjugated anti-mouse antibody and enhanced chemiluminescence Western kit (Pierce, Rockford, IL, USA). After detection of 11β-HSD2 constructs, nitrocellulose membranes were stripped and incubated with rabbit polyclonal anti-actin IgG (Santa Cruz Biotechnology Inc., Santa Cruz, CA, USA) and horseradish peroxidase–conjugated goat anti-rabbit IgG to adjust for the amount of proteins loaded on the gel. The expression of mutant relative to wild-type enzyme was adjusted for calculation of kinetic parameters.

[7] = molecular target: 11β-HSD2 Cys^128Ser (Homo sapiens, UniProt P80365, C128S); conditions: read-out: TBT IC50 ± SD, Cys^128Ser; mutant Cys^128Ser, lysate
11β-HSD2 Cys^128Ser, sequence (P80365 whole entry C128S): as the sequence (P80365 whole entry C127S) above, with S127C, C128S counted along it
Procedure: as §2, §3

[8] = molecular target: 11β-HSD2 Cys^188Ser (Homo sapiens, UniProt P80365, C188S); conditions: read-out: TBT IC50 ± SD, Cys^188Ser; mutant Cys^188Ser, lysate
11β-HSD2 Cys^188Ser, sequence (P80365 whole entry C188S): as the sequence (P80365 whole entry C127S) above, with S127C, C188S counted along it
Procedure: as §2, §3

[9] = molecular target: 11β-HSD2 Cys^248Ser (Homo sapiens, UniProt P80365, C248S); conditions: read-out: TBT IC50 ± SD, Cys^248Ser; mutant Cys^248Ser, lysate
11β-HSD2 Cys^248Ser, sequence (P80365 whole entry C248S): as the sequence (P80365 whole entry C127S) above, with S127C, C248S counted along it
Procedure: as §2, §3

[10] = molecular target: 11β-HSD2 Cys^264Ser (Homo sapiens, UniProt P80365, C264S); conditions: lysate
11β-HSD2 Cys^264Ser, sequence (P80365 whole entry C264S): as the sequence (P80365 whole entry C127S) above, with S127C, C264S counted along it
Procedure: as §2, §3

[11] = molecular target: 11β-HSD2 Cys^371Ser (Homo sapiens, UniProt P80365, C371S); conditions: read-out: TBT IC50 ± SD, Cys^371Ser; mutant Cys^371Ser, lysate
11β-HSD2 Cys^371Ser, sequence (P80365 whole entry C371S): as the sequence (P80365 whole entry C127S) above, with S127C, C371S counted along it
Procedure: as §2, §3

[12] = molecular target: 11β-HSD2 Cys^48Ser (Homo sapiens, UniProt P80365, C48S); conditions: read-out: TBT IC50 ± SD, Cys^48Ser; mutant Cys^48Ser, lysate
11β-HSD2 Cys^48Ser, sequence (P80365 whole entry C48S): as the sequence (P80365 whole entry C127S) above, with C48S, S127C counted along it
Procedure: as §2, §3

[13] = molecular target: T1, 11β-HSD2; conditions: endogenous enzyme, intact cells
Procedure: (§4) SW-620 (human colorectal adenocarcinoma) cells and JEG-3 (human choriocarcinoma) cells were cultured according to the recommendations of the supplier (American Type Culture Collection, Manassas, VA, USA).
(§5) HEK-293 cells stably transfected with 11β-HSD2 (25,000 cells per well) were seeded 24 hr prior to the assay in poly-D-lysine coated 96-well Biocoat plates (Becton Dickinson, Basel, Switzerland). The medium was carefully removed, followed by the addition of 30 μL fresh medium, 10 μL medium containing various concentrations of organotins, and 10 μL radiolabeled cortisol. The reaction volume was 50 μL, with a final cortisol concentration of 40 nM. The cells were incubated for 2 hr at 37°C under 5% CO2. We stopped reactions by adding an excess of unlabeled cortisone and cortisol in methanol, and separated steroids using thin-layer chromatography, followed by scintillation counting. 11β-HSD2 activity in JEG-3, SW-620, and RCCD-2 cells was measured similarly by adjusting the cell density and reaction time to obtain a maximal conversion of cortisol between 15 and 25%.

[14] = molecular target: 11β-HSD2 (Rattus norvegicus, UniProt P50233)
11β-HSD2 (Rattus norvegicus, UniProt P50233), sequence (P50233 whole entry): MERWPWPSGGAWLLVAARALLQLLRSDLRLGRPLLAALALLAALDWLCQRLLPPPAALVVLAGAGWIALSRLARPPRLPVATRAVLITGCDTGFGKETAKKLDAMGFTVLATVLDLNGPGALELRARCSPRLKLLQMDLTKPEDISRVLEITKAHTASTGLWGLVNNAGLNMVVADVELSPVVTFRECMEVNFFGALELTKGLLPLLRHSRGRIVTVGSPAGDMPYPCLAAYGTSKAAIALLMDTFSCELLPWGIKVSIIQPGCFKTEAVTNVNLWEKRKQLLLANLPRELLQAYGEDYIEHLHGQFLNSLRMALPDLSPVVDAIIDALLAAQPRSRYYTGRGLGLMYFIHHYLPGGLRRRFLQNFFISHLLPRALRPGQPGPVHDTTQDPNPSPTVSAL
Procedure: as §4, §5

[15] = ref McVey and Cooke 2003; cited from earlier work
[16] = 40 nM cortisol, 400 μM NAD+, 10 min 37°C, read-out: IC50 11β-HSD2, cell lysate

O[C@@H](CS)[C@@H](O)CS (racemic) [DTT, dithiothreitol, reference compound]
effect on 11β-HSD2 enzymatic activity ([1]; DTT alone, lysate): did not significantly alter enzymatic activity

CCC[CH2][Sn][CH2]CCC [DBT, dibutyltin]
IC50 [1, 16]: 1950 ± 270 nM
IC50 [2]: 5030 ± 700 nM
11β-HSD2 activity in intact cells, compound alone [2]: reduced 11β-HSD2 activity only slightly

c1cc[c]([Sn][c]2ccccc2)cc1 [DPT, diphenyltin]
IC50 [1, 16]: 1420 ± 170 nM
IC50 [2]: 2890 ± 590 nM
11β-HSD2 activity in intact cells, compound alone [2]: reduced 11β-HSD2 activity only slightly

CCC[CH2][Sn]([CH2]CCC)[CH2]CCC [TBT, tributyltin]
inhibition of 17β-HSD1 [3]: neither TBT nor TPT inhibited
IC50 [3]: > 200000 nM
IC50 [4]: > 200000 nM
inhibition of 11β-HSD1-dependent conversion of cortisone to cortisol [5]: did not inhibit
IC50 [5]: > 200000 nM
IC50 [6]: 2230 ± 330 nM
IC50 [7]: 1870 ± 530 nM
IC50 [8]: 1950 ± 380 nM
IC50 [9]: 2070 ± 470 nM
increase in IC50 with Cys^264Ser versus wild-type [10]: 2 fold
IC50 ([10]; read-out: TBT IC50 ± SD, Cys^264Ser, mutant Cys^264Ser): 4200 ± 440 nM
IC50 [11]: 2170 ± 500 nM
IC50 [12]: 2110 ± 330 nM
inhibition of 11β-HSD2 in SW-620 cells compared with HEK-293 cells ([13]; colon-derived): highly similar to that observed in HEK-293 cells
inhibition of 11β-HSD2 in JEG-3 cells compared with HEK-293 cells ([13]; placenta-derived): highly similar to that observed in HEK-293 cells
stronger inhibition in RCCD-2 cells than in HEK-293 cells ([14]; intact cells): approximately 2 fold
IC50 ([14]; read-out: IC50 11β-HSD2 in intact RCCD-2 cells, endogenous enzyme, rat renal cortical collecting duct cells): 830 ± 230 nM
toxic daily intake [15]: 0.25 μg/kg body weight
IC50 [1, 16]: 1900 ± 660 nM
increase of apparent Km ([1]; 2 μM TBT versus control): 2 fold
change of inhibitory effect upon preincubation ([1]; 2 μM TBT, preincubation 5 or 10 min, lysate): the changes did not reach significance
Vmax of 11β-HSD2 in presence of inhibitor ([1]; 2 μM TBT): 1.66 ± 0.40 nmol/h/mg
increase of apparent Km ([1]; 3 μM TBT versus control): 3 fold
Vmax of 11β-HSD2 in presence of inhibitor ([1]; 3 μM TBT): 1.48 ± 0.48 nmol/h/mg
effect of dilution of enzyme-inhibitor complex on relative inhibition ([1]; 2-fold and 4-fold dilution of the EI complex): proportional decrease of the relative inhibitory effect
IC50 ([1]; Table 2, wild-type enzyme, lysate, read-out: TBT IC50 ± SD, wild-type 11β-HSD2): 1900 ± 460 nM
mode of inhibition of 11β-HSD2 ([1]; from change of Km and Vmax with TBT): mixed-competitive mode of inhibition
IC50 [2]: 1520 ± 430 nM
11β-HSD2 activity in intact cells, compound alone [2]: reduced 11β-HSD2 activity only slightly

c1cc[c]([Sn]([c]2ccccc2)[c]2ccccc2)cc1 [TPT, triphenyltin]
inhibition of 17β-HSD1 [3]: neither TBT nor TPT inhibited
IC50 [3]: > 200000 nM
IC50 for 17β-HSD2 relative to IC50 for 11β-HSD2 ([4]; lysates): 6 fold
IC50 [4]: 19000 ± 3000 nM
inhibition of 11β-HSD1-dependent conversion of cortisone to cortisol [5]: did not inhibit
IC50 [5]: > 200000 nM
IC50 [1, 16]: 3190 ± 730 nM
IC50 [2]: 990 ± 240 nM
11β-HSD2 activity in intact cells, compound alone [2]: reduced 11β-HSD2 activity only slightly

N[C@@H](CCC(=O)N[C@@H](CS)C(=O)NCC(=O)O)C(=O)O [glutathione, reference compound]
prevention of organotin-dependent inhibition of 11β-HSD2 ([1]; not shown): not able to prevent
